For 21 compounds, IC50 results are on record in patent US20220348584A1, “PERK INHIBITING INDOLINYL COMPOUNDS” (HiberCell, Inc., priority 2019, published 2022).

Assay [1] has as its target T1, EIF2AK3 (PERK) catalytic domain (amino acids 536-1116) (Homo sapiens, UniProt Q9NZJ5).
T1 construct: EIF2AK3 (PERK) catalytic domain (amino acids 536-1116); purchased Invitrogen, Carlsbad, Calif
T1 sequence (Q9NZJ5 536-1116): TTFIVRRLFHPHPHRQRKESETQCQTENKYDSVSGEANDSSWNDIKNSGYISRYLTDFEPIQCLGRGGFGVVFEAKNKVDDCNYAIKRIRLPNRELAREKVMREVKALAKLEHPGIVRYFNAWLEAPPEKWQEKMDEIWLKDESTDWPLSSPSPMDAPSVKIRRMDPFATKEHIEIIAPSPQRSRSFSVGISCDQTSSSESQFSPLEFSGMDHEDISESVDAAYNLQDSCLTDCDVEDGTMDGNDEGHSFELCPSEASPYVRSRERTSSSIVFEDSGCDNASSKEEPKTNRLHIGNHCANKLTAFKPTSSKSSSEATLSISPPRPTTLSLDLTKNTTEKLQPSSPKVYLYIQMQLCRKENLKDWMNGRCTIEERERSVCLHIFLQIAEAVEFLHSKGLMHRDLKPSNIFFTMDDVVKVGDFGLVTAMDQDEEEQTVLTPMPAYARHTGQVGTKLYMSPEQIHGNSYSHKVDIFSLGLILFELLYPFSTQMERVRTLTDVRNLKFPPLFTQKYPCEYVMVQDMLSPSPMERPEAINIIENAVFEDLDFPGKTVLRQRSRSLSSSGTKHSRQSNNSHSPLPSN
The experiment in a line: PERK In Vitro Activity Assay (Isolated), TR-FRET kinase assay. It counts as biochemical. The following applies: isolated PERK enzyme, 1.5 μM ATP. How it is done: Perform TR-FRET kinase assays in the absence or presence of inhibitors in a reaction buffer consisting of 50 mM HEPES, pH 7.5, 10 mM MgCb, 1.0 mM EGTA, and 0.01% Brij-35, and 100-200 nM GFP-eIF2a substrate. […] Add test compound, initiate the reaction by addition of enzyme, and incubate at room temperature for 45 minutes. Stop the reaction by addition of EDTA to a final concentration of 10 mM, add Terbium-labelled phospho-eIF2a antibody at a final concentration of 2 nM, and incubate for 90 minutes. Monitor the resulting fluorescence in an EnVison® Multilabel reader (PerkinElmer, Waltham, Mass.).

The test system of a further assay is HEK293-EGFP-eIF2a cells. The experiment in a line: PERK Cellular Assay (TR-FRET, GFP-eIF2α, tunicamycin-induced ER stress). Type of assay: cell-based, human. The protocol: Stable cell lines were created in HEK293 cells using lentiviral particles harboring an expression vector for GFP-eIF2α. Cells were selected using puromycin and enriched using fluorescence activated cell sorting against GFP. HEK293-EGFP-eIF2a cells were plated at 5000 cells/well in 384-well assay plates and incubated overnight at 37° C., 5% CO2. Inhibitor compounds were added to the wells by Echo acoustic dispensing and incubated for 30 minutes at 37° C., 5% CO2 prior to induction of ER stress by addition of tunicamycin to […] for 2 hours. Cells were lysed and TR-FRET was measured in an EnVision plate reader (PerkinElmer). FRET ratio data was normalized to signal from lysates treated with DMSO vehicle control and plotted as percent inhibition against 10-point; 3-fold dilution series of inhibitors. IC50 values were calculated using 4-parameter logistical fitting in XLFit.

Setting [2] is: Homo sapiens, 2 h, HEK293-EGFP-eIF2a cells, tunicamycin 2 hours, TR-FRET, read-out: Cellular eIF2α IC50.
The mark [3] stands for this setting: Homo sapiens, 2 h, read-out: Cellular eIF2α IC50 (μM).
Where [4] appears, read: HEK293-EGFP-eIF2a cells, tunicamycin 2 hours, TR-FRET, read-out: Cellular eIF2α IC50.

Read-outs that look alike come from different tables or passages of the source.

As for `Cc1cccc(CC(=O)N2CCc3c2ccc(-c2cn(C)c4nc(C)nc(N)c24)c3F)n1` [Example 21, 1-(5-(4-amino-2,7-dimethyl-7H-pyrrolo[2,3-d]pyrimidin-5-yl)-4-fluoroindolin-1-yl)-2-(6-methylpyridin-2-yl)ethanone], the results for the IC50 (in assay [1] (read-out: Biochemical IC50); in the assay on HEK293-EGFP-eIF2a cells (setting [2])) were 0.001 to 0.025 µM and 0.026 to 0.05 µM, respectively. On to `Cc1nc(N)c2c(-c3ccc4c(c3F)CCN4C(=O)C(O)c3ccccc3)cn(C)c2n1` (racemic) [Example 5, 1-(5-(4-amino-2,7-dimethyl-7H-pyrrolo[2,3-d]pyrimidin-5-yl)-4-fluoroindolin-1-yl)-2-hydroxy-2-phenylethanone], for which the IC50 in assay [1] (read-out: Biochemical IC50) was in the range of 0.026 to 0.05 µM.

Take `Cn1cc(-c2ccc3c(c2F)CCN3C(=O)Nc2ccccc2)c2c(N)ncnc21` [Example 28, 5-(4-amino-7-methyl-7H-pyrrolo[2,3-d]pyrimidin-5-yl)-4-fluoro-N-phenylindoline-1-carboxamide]: the half-inhibitory concentration (IC50) in assay [1] (read-out: Biochemical IC50) fell in the range of 0.101 to 0.25 µM; in the assay with HEK293-EGFP-eIF2a cells (setting [2]), 2 to 3 µM. Turning to `Cn1cc(-c2ccc3c(c2F)CCN3C(=O)Cc2cccc(C(F)(F)F)n2)c2c(N)ncnc21` [Example 22, 1-(5-(4-amino-7-methyl-7H-pyrrolo[2,3-d]pyrimidin-5-yl)-4-fluoroindolin-1-yl)-2-(6-(trifluoromethyl)pyridin-2-yl)ethanone], the IC50 (in assay [1] (Biochemical IC50 (μM)); with HEK293-EGFP-eIF2a cells (setting [3])) was 0.001 to 0.025 µM throughout. Turning to `CCc1cnc(N)c2c(-c3ccc4c(c3F)CCN4C(=O)Cc3cccc(C)n3)nc(C)n12` [Example 25, 1-(5-(8-amino-5-ethyl-3-methylimidazo[1,5-a]pyrazin-1-yl)-4-fluoroindolin-1-yl)-2-(6-methylpyridin-2-yl)ethanone], the IC50 (in assay [1] (read-out: Biochemical IC50); with HEK293-EGFP-eIF2a cells (setting [2])) was 0.051 to 0.1 µM each time. As to `Cc1nc(N)c2c(-c3ccc4c(c3F)CCN4C(=O)C(O)c3cccc(F)c3)cn(C)c2n1` (racemic) [Example 9, 1-(5-(4-amino-2,7-dimethyl-7H-pyrrolo[2,3-d]pyrimidin-5-yl)-4-fluoroindolin-1-yl)-2-(3-fluorophenyl)-2-hydroxyethanone], the IC50 with HEK293-EGFP-eIF2a cells (setting [2]) fell in the range of 0.051 to 0.1 µM. `Cc1cc(C)n(CC(=O)N2CCc3c2ccc(-c2cn(C)c4nc(C)nc(N)c24)c3F)n1` [Example 32, 1-(5-(4-amino-2,7-dimethyl-7H-pyrrolo[2,3-d]pyrimidin-5-yl)-4-fluoroindolin-1-yl)-2-(3,5-dimethyl-1H-pyrazol-1-yl)ethanone]: the IC50 in assay [1] (read-out: Biochemical IC50) was in the range of 0.001 to 0.025 µM; in the assay on HEK293-EGFP-eIF2a cells (setting [2]) it was 0.051 to 0.1 µM. As for `Cc1nc(N)c2c(-c3ccc4c(c3)CCN4C(=O)C(O)c3cc(F)cc(C(F)(F)F)c3)cn(C)c2n1` (single isomer, unassigned) [Example 19, 1-(5-(4-amino-2,7-dimethyl-7H-pyrrolo[2,3-d]pyrimidin-5-yl)indolin-1-yl)-2-(3-fluoro-5-(trifluoromethyl)phenyl)-2-hydroxyethanone], the IC50 in assay [1] (read-out: Biochemical IC50) fell in the range of 0.001 to 0.025 µM; in the assay on HEK293-EGFP-eIF2a cells (setting [4]) it was 0.101 to 0.25 µM. For `CC(C)NC(=O)c1cc(-c2ccc3c(c2F)CCN3C(=O)C(O)c2cc(F)cc(F)c2)cnc1N` (single isomer, unassigned) [Example 7, 2-amino-5-(1-(2-(3,5-difluorophenyl)-2-hydroxyacetyl)-4-fluoroindolin-5-yl)-N-isopropylnicotinamide] the same measures were 0.051 to 0.1 µM and 0.101 to 0.25 µM. For `Cn1cc(-c2ccc3c(c2F)CCN3C(=O)C(F)(F)c2ccccc2)c2c(N)ncnc21` [Example 30, 1-(5-(4-amino-7-methyl-7H-pyrrolo[2,3-d]pyrimidin-5-yl)-4-fluoroindolin-1-yl)-2,2-difluoro-2-phenylethanone], the IC50 in assay [1] (read-out: Biochemical IC50) was in the range of 0.026 to 0.05 µM; in the assay on HEK293-EGFP-eIF2a cells (setting [2]), 0.101 to 0.25 µM. Consider `Cc1cccc(CC(=O)N2CCc3c2ccc(-c2nc(C)n4c(C)c(C)nc(N)c24)c3F)n1` [Example 27, 1-(5-(8-amino-3,5,6-trimethylimidazo[1,5-a]pyrazin-1-yl)-4-fluoroindolin-1-yl)-2-(6-methylpyridin-2-yl)ethanone], for which the results for the IC50 (in assay [1] (read-out: Biochemical IC50); with HEK293-EGFP-eIF2a cells (setting [2])) were 0.051 to 0.1 µM and 0.251 to 0.5 µM, respectively. Regarding `Cc1nc(N)c2c(-c3ccc4c(c3F)CCN4C(=O)C(O)c3cc(F)cc(F)c3)cn(C)c2n1` (racemic) [Example 10, 1-(5-(4-amino-2,7-dimethyl-7H-pyrrolo[2,3-d]pyrimidin-5-yl)-4-fluoroindolin-1-yl)-2-(3,5-difluorophenyl)-2-hydroxyethanone], the IC50 (in assay [1] (read-out: Biochemical IC50); with HEK293-EGFP-eIF2a cells (setting [2])) was 0.001 to 0.025 µM each time.

Take `Cc1cccc(C(O)C(=O)N2CCc3c2ccc(-c2nc(C4CC(C)(O)C4)n4cc(C)nc(N)c24)c3F)n1` (single isomer, unassigned) [Example 17, 1-(5-(8-amino-3-(3-hydroxy-3-methylcyclobutyl)-6-methylimidazo[1,5-a]pyrazin-1-yl)-4-fluoroindolin-1-yl)-2-hydroxy-2-(6-methylpyridin-2-yl)ethanone]: the IC50 in assay [1] (read-out: Biochemical IC50) is 0.051 to 0.1 µM; with HEK293-EGFP-eIF2a cells (setting [2]), more than 5 µM. In the case of `Cc1cn2c(C3CC(C)(O)C3)nc(-c3ccc4c(c3F)CCN4C(=O)C(O)c3cccc(F)c3)c2c(N)n1` (single isomer, unassigned) [Example 14, 1-(5-(8-amino-3-(3-hydroxy-3-methylcyclobutyl)-6-methylimidazo[1,5-a]pyrazin-1-yl)-4-fluoroindolin-1-yl)-2-(3-fluorophenyl)-2-hydroxyethanone], the IC50 in assay [1] (read-out: Biochemical IC50) was 0.001 to 0.025 µM; in the assay on HEK293-EGFP-eIF2a cells (setting [4]), 0.051 to 0.1 µM. As for `Cc1cccc(CC(=O)N2CCc3c2ccc(-c2cnc(N)c(C(=O)NC(C)C)c2)c3F)n1` [Example 29, 2-amino-5-(4-fluoro-1-(2-(6-methylpyridin-2-yl)acetyl)indolin-5-yl)-N-isopropylnicotinamide], the IC50 in assay [1] (read-out: Biochemical IC50) was 0.051 to 0.1 µM; with HEK293-EGFP-eIF2a cells (setting [2]), 0.501 to 1 µM. With `Cc1cccc(CC(=O)N2CCc3c2ccc(-c2nc(C)n4cc(C)nc(N)c24)c3F)n1` [Example 26, 1-(5-(8-amino-3,6-dimethylimidazo[1,5-a]pyrazin-1-yl)-4-fluoroindolin-1-yl)-2-(6-methylpyridin-2-yl)ethanone], the IC50 (in assay [1] (read-out: Biochemical IC50); in the assay with HEK293-EGFP-eIF2a cells (setting [2])) was 0.101 to 0.25 µM each time. On to `Cn1cc(-c2ccc3c(c2F)CCN3C(=O)C(N)c2ccccc2)c2c(N)ncnc21` (single isomer, unassigned) [Example 3, 2-amino-1-(5-(4-amino-7-methyl-7H-pyrrolo[2,3-d]pyrimidin-5-yl)-4-fluoroindolin-1-yl)-2-phenylethanone], for which the concentration for half-maximal inhibition (IC50) (in assay [1] (read-out: Biochemical IC50); in the assay on HEK293-EGFP-eIF2a cells (setting [2])) was 0.051 to 0.1 µM throughout. Turning to `Cc1cc(C)n(CC(=O)N2CCc3c2ccc(-c2cn(C)c4ncnc(N)c24)c3F)n1` [Example 31, 1-(5-(4-amino-7-methyl-7H-pyrrolo[2,3-d]pyrimidin-5-yl)-4-fluoroindolin-1-yl)-2-(3,5-dimethyl-1H-pyrazol-1-yl)ethanone], the IC50 (in assay [1] (Biochemical IC50 (μM)); in the assay with HEK293-EGFP-eIF2a cells (setting [3])) was 0.001 to 0.025 µM each time.

As to `CC(C)NC(=O)c1cc(-c2ccc3c(c2F)CCN3C(=O)C(O)c2cc(F)cc(F)c2)cnc1N` (single isomer, unassigned) [Example 6, 2-amino-5-(1-(2-(3,5-difluorophenyl)-2-hydroxyacetyl)-4-fluoroindolin-5-yl)-N-isopropylnicotinamide], the IC50 in assay [1] (read-out: Biochemical IC50) fell in the range of 0.101 to 0.25 µM; in the assay on HEK293-EGFP-eIF2a cells (setting [4]) it was 0.251 to 0.5 µM.

On to `Cc1cccc(C(O)C(=O)N2CCc3c2ccc(-c2nc(C4CC(C)(O)C4)n4cc(C)nc(N)c24)c3F)n1` (single isomer, unassigned) [Example 18, 1-(5-(8-amino-3-(3-hydroxy-3-methylcyclobutyl)-6-methylimidazo[1,5-a]pyrazin-1-yl)-4-fluoroindolin-1-yl)-2-hydroxy-2-(6-methylpyridin-2-yl)ethanone], for which the IC50 in assay [1] (read-out: Biochemical IC50) was in the range of 0.051 to 0.1 µM; in the assay on HEK293-EGFP-eIF2a cells (setting [4]) it was 3 to 4 µM. As to `Cc1nc(-c2ccc3c(c2)CCN3C(=O)Cc2cc(F)cc(C(F)(F)F)c2)c2c(N)ncc(Cl)n12` [Example 33, 1-(5-(8-amino-5-chloro-3-methylimidazo[1,5-a]pyrazin-1-yl)indolin-1-yl)-2-(3-fluoro-5-(trifluoromethyl)phenyl)ethanone], the IC50 (in assay [1] (read-out: Biochemical IC50); with HEK293-EGFP-eIF2a cells (setting [2])) was 0.001 to 0.025 µM each time.
